Assay results published in US10189842B2 (Agency for Science, Technology and Research, priority 2013, dated 2019).

Tested on: HEK293-STF3A cells
Experiment: STF3A assay (luciferase reporter)
Assay type: cell-based, Human
Conditions: Homo sapiens, 24 h, 1 day of treatment
In short: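 HEK293 cells carrying the STF reporter and expressing Wnt3A, seeded 2×10^4 per well overnight, then treated 1 day with compound at final 50 μM to 1.5 nM. Luciferase activity read by luminescence after Steady-Glo reagent, 10 min at room temperature.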

Cc1cc2n(n1)CCCN2C(=O)CCC(=O)Nc1ccc(-c2cccc(F)c2)cn1 [Compound 89, N-(5-(3-fluorophenyl)pyridin-2-yl)-4-(2-methyl-6,7-dihydropyrazolo[1,5-a]pyrimidin-4(5H)-yl)-4-oxobutanamide]
IC50: < 0.1 µM

Cc1cc2n(n1)CCCN2C(=O)CCC(=O)Nc1ccc(-c2ccc(F)cc2)cn1 [Compound 90, N-(5-(4-fluorophenyl)pyridin-2-yl)-4-(2-methyl-6,7-dihydropyrazolo[1,5-a]pyrimidin-4(5H)-yl)-4-oxobutanamide]
IC50: < 0.1 µM

Cc1cc2n(n1)CCCN2C(=O)CCC(=O)Nc1ncc(-c2ccccc2)cc1C [Compound 91, N-(3-methyl-5-phenylpyridin-2-yl)-4-(2-methyl-6,7-dihydropyrazolo[1,5-a]pyrimidin-4(5H)-yl)-4-oxobutanamide]
IC50: < 5 µM

Cc1cc2n(n1)CCCN2C(=O)CCC(=O)Nc1cc(C)c(-c2ccccc2)cn1 [Compound 92, N-(4-methyl-5-phenylpyridin-2-yl)-4-(2-methyl-6,7-dihydropyrazolo[1,5-a]pyrimidin-4(5H)-yl)-4-oxobutanamide]
IC50: < 1 µM

Cc1cccc(-c2ccc(NC(=O)CCC(=O)N3CCCn4nc(C)cc43)nc2)c1 [Compound 93, 4-(2-methyl-6,7-dihydropyrazolo[1,5-a]pyrimidin-4(5H)-yl)-4-oxo-N-(5-(m-tolyl)pyridin-2-yl)butanamide]
IC50: < 0.1 µM

Cc1cc2n(n1)CCCN2C(=O)CCC(=O)Nc1ccc(-c2ccc(F)cn2)cn1 [Compound 94, N-(5-fluoro-2,3′-bipyridin-6′-yl)-4-(2-methyl-6,7-dihydropyrazolo[1,5-a]pyrimidin-4(5H)-yl)-4-oxobutanamide]
IC50: < 0.1 µM

Cc1cc2n(n1)CCCN2C(=O)CCC(=O)Nc1ccc(-c2cc(F)ccn2)cn1 [Compound 95, N-(4-fluoro-2,3′-bipyridin-6′-yl)-4-(2-methyl-6,7-dihydropyrazolo[1,5-a]pyrimidin-4(5H)-yl)-4-oxobutanamide]
IC50: < 0.1 µM

Cc1cccc(-c2ccc(NC(=O)CCC(=O)N3CCCn4nc(C)cc43)nc2)n1 [Compound 96, 4-(2-methyl-6,7-dihydropyrazolo[1,5-a]pyrimidin-4(5H)-yl)-N-(6-methyl-[2,3′-bipyridin]-6′-yl)-4-oxobutanamide]
IC50: < 0.1 µM

Cc1cc2n(n1)CCCN2C(=O)CCC(=O)Nc1ccc(-c2cccc(Cl)c2)nn1 [Compound 97, N-(6-(3-chlorophenyl)pyridazin-3-yl)-4-(2-methyl-6,7-dihydropyrazolo[1,5-a]pyrimidin-4(5H)-yl)-4-oxobutanamide]
IC50: < 0.1 µM

Cc1cc2n(n1)CCCN2C(=O)CCC(=O)Nc1ccc(-c2cccc(F)c2)nn1 [Compound 98, N-(6-(3-fluorophenyl)pyridazin-3-yl)-4-(2-methyl-6,7-dihydropyrazolo[1,5-a]pyrimidin-4(5H)-yl)-4-oxobutanamide]
IC50: < 0.1 µM

Cc1cccc(-c2ccc(NC(=O)CCC(=O)N3CCCn4nc(C)cc43)nn2)c1 [Compound 99, 4-(2-methyl-6,7-dihydropyrazolo[1,5-a]pyrimidin-4(5H)-yl)-4-oxo-N-(6-(m-tolyl)pyridazin-3-yl)butanamide]
IC50: < 0.1 µM

Cc1cc2n(n1)CCCN2C(=O)CCC(=O)Nc1ccc(-c2ccc(Cl)cc2)nn1 [Compound 100, N-[6-(4-chlorophenyl)pyridazin-3-yl]-4-{2-methyl-5H,6H,7H-pyrazolo[1,5-a]pyrimidin-4-yl}-4-oxobutanamide]
IC50: < 0.1 µM

Cc1cc2n(n1)CCCN2C(=O)CCC(=O)Nc1ccc(-c2ccc(F)cc2)nn1 [Compound 101, N-(6-(4-fluorophenyl)pyridazin-3-yl)-4-(2-methyl-6,7-dihydropyrazolo[1,5-a]pyrimidin-4(5H)-yl)-4-oxobutanamide]
IC50: < 0.1 µM

Cc1cc2n(n1)CCCN2C(=O)CCC(=O)Nc1ccc(-c2cncc(Cl)c2)nn1 [Compound 102, N-(6-(5-chloropyridin-3-yl)pyridazin-3-yl)-4-(2-methyl-6,7-dihydropyrazolo[1,5-a]pyrimidin-4(5H)-yl)-4-oxobutanamide]
IC50: < 0.1 µM

Cc1cc2n(n1)CCCN2C(=O)CCC(=O)Nc1ccc(-c2cncc(F)c2)nn1 [Compound 103, N-(6-(5-fluoropyridin-3-yl)pyridazin-3-yl)-4-(2-methyl-6,7-dihydropyrazolo[1,5-a]pyrimidin-4(5H)-yl)-4-oxobutanamide]
IC50: < 0.1 µM

Cc1cncc(-c2ccc(NC(=O)CCC(=O)N3CCCn4nc(C)cc43)nn2)c1 [Compound 104, 4-(2-methyl-6,7-dihydropyrazolo[1,5-a]pyrimidin-4(5H)-yl)-N-(6-(5-methylpyridin-3-yl)pyridazin-3-yl)-4-oxobutanamide]
IC50: < 0.1 µM

Cc1cc2n(n1)CCCN2C(=O)CCC(=O)Nc1ccc(-c2cncc(C(F)(F)F)c2)nn1 [Compound 105, 4-(2-methyl-6,7-dihydropyrazolo[1,5-a]pyrimidin-4(5H)-yl)-4-oxo-N-(6-(5-(trifluoromethyl)pyridin-3-yl)pyridazin-3-yl)butanamide]
IC50: < 0.1 µM

Cc1cc2n(n1)CCCN2C(=O)CCC(=O)Nc1cc(C)c(-c2cccnc2)nn1 [Compound 106, 4-(2-methyl-6,7-dihydropyrazolo[1,5-a]pyrimidin-4(5H)-yl)-N-(5-methyl-6-(pyridin-3-yl)pyridazin-3-yl)-4-oxobutanamide]
IC50: < 5 µM

Cc1ccc(-c2ccc(NC(=O)CCC(=O)N3CCCn4nc(C)cc43)nn2)cn1 [Compound 107, 4-(2-methyl-6,7-dihydropyrazolo[1,5-a]pyrimidin-4(5H)-yl)-N-(6-(6-methylpyridin-3-yl)pyridazin-3-yl)-4-oxobutanamide]
IC50: < 0.1 µM

Cc1cc2n(n1)CCCN2C(=O)CCC(=O)Nc1ccc(-c2cncc(Cl)c2)nc1 [Compound 108, N-(5′-chloro-[2,3′-bipyridin]-5-yl)-4-(2-methyl-6,7-dihydropyrazolo[1,5-a]pyrimidin-4(5H)-yl)-4-oxobutanamide]
IC50: < 0.1 µM

Cc1cc2n(n1)CCCN2C(=O)CCC(=O)Nc1ccc(-c2cncc(F)c2)nc1 [Compound 109, N-(5′-fluoro-[2,3′-bipyridin]-5-yl)-4-(2-methyl-6,7-dihydropyrazolo[1,5-a]pyrimidin-4(5H)-yl)-4-oxobutanamide]
IC50: < 0.1 µM

Cc1cc2n(n1)CCCN2C(=O)CCC(=O)Nc1cnc(-c2cccnc2)c(F)c1 [Compound 111, N-(3-fluoro-2,3′-bipyridin-5-yl)-4-(2-methyl-6,7-dihydropyrazolo[1,5-a]pyrimidin-4(5H)-yl)-4-oxobutanamide]
IC50: < 0.1 µM

Cc1cc2n(n1)CCCN2C(=O)CCC(=O)Nc1ccc(-c2cncc(N)c2)nc1 [Compound 112, N-(5′-amino-2,3′-bipyridin-5-yl)-4-(2-methyl-6,7-dihydropyrazolo[1,5-a]pyrimidin-4(5H)-yl)-4-oxobutanamide]
IC50: < 1 µM

Cc1ccc(-c2ccc(NC(=O)CCC(=O)N3CCCn4nc(C)cc43)cn2)cn1 [Compound 113, 4-(2-methyl-6,7-dihydropyrazolo[1,5-a]pyrimidin-4(5H)-yl)-N-(6′-methyl-[2,3′-bipyridin]-5-yl)-4-oxobutanamide]
IC50: < 0.1 µM

Cc1cc2n(n1)CCCN2C(=O)CCC(=O)Nc1ccc(-c2cncc(Cl)c2)cn1 [Compound 114, N-(5′-chloro-[3,3′-bipyridin]-6-yl)-4-(2-methyl-6,7-dihydropyrazolo[1,5-a]pyrimidin-4(5H)-yl)-4-oxobutanamide]
IC50: < 0.1 µM

Cc1cc2n(n1)CCCN2C(=O)CCC(=O)Nc1ccc(-c2cncc(F)c2)cn1 [Compound 115, N-(5′-fluoro-[3,3′-bipyridin]-6-yl)-4-(2-methyl-6,7-dihydropyrazolo[1,5-a]pyrimidin-4(5H)-yl)-4-oxobutanamide]
IC50: < 0.1 µM

Cc1cncc(-c2ccc(NC(=O)CCC(=O)N3CCCn4nc(C)cc43)nc2)c1 [Compound 116, 4-(2-methyl-6,7-dihydropyrazolo[1,5-a]pyrimidin-4(5H)-yl)-N-(5′-methyl-[3,3′-bipyridin]-6-yl)-4-oxobutanamide]
IC50: < 0.1 µM

Cc1cc2n(n1)CCCN2C(=O)CCC(=O)Nc1ccc(-c2cncc(N)c2)cn1 [Compound 117]
IC50: < 0.1 µM

Cc1cc2n(n1)CCCN2C(=O)CCC(=O)Nc1ccc(-c2cncc(C(F)(F)F)c2)cn1 [Compound 118, 4-(2-methyl-6,7-dihydropyrazolo[1,5-a]pyrimidin-4(5H)-yl)-4-oxo-N-(5′-(trifluoromethyl)-[3,3′-bipyridin]-6-yl)butanamide]
IC50: < 0.1 µM

Cc1cc2n(n1)CCCN2C(=O)CCC(=O)Nc1cc(C)c(-c2cccnc2)cn1 [Compound 119, N-(4-methyl-3,3′-bipyridin-6-yl)-4-(2-methyl-6,7-dihydropyrazolo[1,5-a]pyrimidin-4(5H)-yl)-4-oxobutanamide]
IC50: < 5 µM

Cc1cncc(-c2cnc(NC(=O)CCC(=O)N3CCCn4nc(C)cc43)cc2C)c1 [Compound 120, N-(4,5′-dimethyl-3,3′-bipyridin-6-yl)-4-(2-methyl-6,7-dihydropyrazolo[1,5-a]pyrimidin-4(5H)-yl)-4-oxobutanamide]
IC50: < 5 µM

Cc1ccc(-c2ccc(NC(=O)CCC(=O)N3CCCn4nc(C)cc43)nc2)cn1 [Compound 121, N-(6′-methyl-3,3′-bipyridin-6-yl)-4-(2-methyl-6,7-dihydropyrazolo[1,5-a]pyrimidin-4(5H)-yl)-4-oxobutanamide]
IC50: < 0.1 µM

Cc1cc2n(n1)CCCN2C(=O)CCC(=O)Nc1cnc(-c2cncc(F)c2)cn1 [Compound 122, N-(5-(5-fluoropyridin-3-yl)pyrazin-2-yl)-4-(2-methyl-6,7-dihydropyrazolo[1,5-a]pyrimidin-4(5H)-yl)-4-oxobutanamide]
IC50: < 0.1 µM

Cc1cc2n(n1)CCCN2C(=O)CCC(=O)Nc1cnc(-c2cccc(F)c2)cn1 [Compound 123, N-(5-(3-fluorophenyl)pyrazin-2-yl)-4-(2-methyl-6,7-dihydropyrazolo[1,5-a]pyrimidin-4(5H)-yl)-4-oxobutanamide]
IC50: < 0.1 µM

Cc1cncc(-c2cnc(NC(=O)CCC(=O)N3CCCn4nc(C)cc43)cn2)c1 [Compound 124, 4-(2-methyl-6,7-dihydropyrazolo[1,5-a]pyrimidin-4(5H)-yl)-N-(5-(5-methylpyridin-3-yl)pyrazin-2-yl)-4-oxobutanamide]
IC50: < 0.1 µM
